Reference: US20260085034A1, “N-(BENZHYDRYL)CYCLOALKYLCARBOXAMIDE DERIVATIVES AS INHIBITORS OF GLYCOGEN SYNTHASE 1 (GYS1) AND METHODS OF USE THEREOF” (Maze Therapeutics, Inc., priority 2022, published 2026)

Target: T1, recombinant hGYS1/GN1 protein (Homo sapiens, UniProt P13807)
T1 sequence (P13807 1-737): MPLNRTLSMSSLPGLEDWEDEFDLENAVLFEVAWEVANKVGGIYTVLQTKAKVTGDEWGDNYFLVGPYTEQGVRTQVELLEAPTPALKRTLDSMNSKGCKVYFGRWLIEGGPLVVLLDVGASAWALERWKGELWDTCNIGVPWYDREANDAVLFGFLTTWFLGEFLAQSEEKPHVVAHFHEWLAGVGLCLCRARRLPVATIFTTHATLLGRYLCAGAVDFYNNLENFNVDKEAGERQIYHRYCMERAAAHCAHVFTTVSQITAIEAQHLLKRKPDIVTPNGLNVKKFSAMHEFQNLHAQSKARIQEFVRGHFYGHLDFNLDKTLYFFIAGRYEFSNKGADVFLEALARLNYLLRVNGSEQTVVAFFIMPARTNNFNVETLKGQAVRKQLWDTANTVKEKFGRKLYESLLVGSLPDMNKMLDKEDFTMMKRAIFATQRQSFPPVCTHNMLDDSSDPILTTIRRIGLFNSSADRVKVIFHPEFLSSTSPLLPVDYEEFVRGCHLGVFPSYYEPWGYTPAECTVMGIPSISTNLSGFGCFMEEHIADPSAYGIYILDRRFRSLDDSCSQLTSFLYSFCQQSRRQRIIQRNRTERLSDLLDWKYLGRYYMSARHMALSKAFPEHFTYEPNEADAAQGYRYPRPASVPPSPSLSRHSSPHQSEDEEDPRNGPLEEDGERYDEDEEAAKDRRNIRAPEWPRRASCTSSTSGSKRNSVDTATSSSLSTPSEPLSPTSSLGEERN
T1 sequence (P46976 1-350 partner): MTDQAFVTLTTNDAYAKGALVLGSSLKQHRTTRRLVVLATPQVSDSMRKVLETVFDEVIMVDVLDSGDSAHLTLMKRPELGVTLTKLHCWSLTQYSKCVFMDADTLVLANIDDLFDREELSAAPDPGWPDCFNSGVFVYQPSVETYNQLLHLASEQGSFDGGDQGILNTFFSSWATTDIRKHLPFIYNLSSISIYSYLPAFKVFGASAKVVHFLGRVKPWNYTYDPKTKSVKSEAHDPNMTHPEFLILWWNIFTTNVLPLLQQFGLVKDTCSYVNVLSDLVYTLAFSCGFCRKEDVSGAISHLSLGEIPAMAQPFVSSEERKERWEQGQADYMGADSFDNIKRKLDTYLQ
Test: GYS1 coupled enzyme assay (PK/LDH)
Format: biochemical
Conditions: geometric mean of at least 2 assay runs; NADH absorbance at 340 nm
Procedure, shortened: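 Recombinant hGYS1/GN1 (50 nM) with 0.8 mM UDP-glucose, 0.2% glycogen and 1 mM glucose-6-phosphate in Tris pH 7.5, 2.5% DMSO. UDP formation coupled via PK/LDH to NADH oxidation, read at 340 nm over 10 min. Control-normalized slopes fit to Hill equation; IC50 as geometric mean of ≥2 runs.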

IC50: 145 nM
SMILES: CC(C)c1ccc([C@@H](NC(=O)[C@H]2C[C@@H]2F)c2ccn[nH]2)cc1F (single isomer, unassigned) [compound 11]
